Data reported in patent US10392404B2, “Compounds and compositions as kinase inhibitors” (NOVARTIS AG, priority 2014, dated 2019).

Key:
C-RAF = target: T1, C-RAF (Homo sapiens, UniProt P04049, Y340E/Y341E); assay: In vitro Raf activity determination (Alpha Screen, biotinylated kinase-dead MEK1 substrate), C-Raf; assay type: biochemical; details: c-Raf approximately 4 nM; ATP 1 μM; pre-incubation 60 minutes; reaction 1 hour at room temperature
T1 construct: His tag (implied by nickel chromatography) (cleaved yes); StrepII tag (cleaved yes); made in house; host or cells: Sf9 insect cells (baculovirus), CRAF and h14-3-3 zeta co-expressed; MEK1 substrate from E. coli
In short: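 AlphaScreen read-out of MEK phosphorylation using an anti-phospho-MEK1/2 antibody after a 1 hour room-temperature reaction at 1 μM ATP. Enzyme: approximately 4 nM Sf9-expressed full-length activated C-Raf (Y340E/Y341E, with 14-3-3ζ) on approximately 10 nM biotinylated K97R MEK1, after 60 min compound preincubation. IC50 by non-linear fit.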

b-Raf (V600E) = target: T2, b-Raf (V600E) (Homo sapiens, UniProt P15056, V600E); assay: In vitro Raf activity determination (Alpha Screen, biotinylated kinase-dead MEK1 substrate), B-Raf; assay type: biochemical; details: b-Raf (V600E) approximately 4 pM; ATP 10 μM; pre-incubation 60 minutes; reaction 3 hours at room temperature
T2 construct: made in house
In short: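 IC50 from non-linear regression of AlphaScreen phospho-MEK signal (anti-p-MEK1/2 antibody). b-Raf(V600E), about 4 pM, phosphorylated ~10 nM biotinylated K97R MEK1 with 10 μM ATP for 3 h at room temperature after 60 min compound pre-incubation; buffer pH 7.5 Tris, 15 mM MgCl2, 1 mM DTT.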

T1 sequence (P04049 whole entry Y340E/Y341E): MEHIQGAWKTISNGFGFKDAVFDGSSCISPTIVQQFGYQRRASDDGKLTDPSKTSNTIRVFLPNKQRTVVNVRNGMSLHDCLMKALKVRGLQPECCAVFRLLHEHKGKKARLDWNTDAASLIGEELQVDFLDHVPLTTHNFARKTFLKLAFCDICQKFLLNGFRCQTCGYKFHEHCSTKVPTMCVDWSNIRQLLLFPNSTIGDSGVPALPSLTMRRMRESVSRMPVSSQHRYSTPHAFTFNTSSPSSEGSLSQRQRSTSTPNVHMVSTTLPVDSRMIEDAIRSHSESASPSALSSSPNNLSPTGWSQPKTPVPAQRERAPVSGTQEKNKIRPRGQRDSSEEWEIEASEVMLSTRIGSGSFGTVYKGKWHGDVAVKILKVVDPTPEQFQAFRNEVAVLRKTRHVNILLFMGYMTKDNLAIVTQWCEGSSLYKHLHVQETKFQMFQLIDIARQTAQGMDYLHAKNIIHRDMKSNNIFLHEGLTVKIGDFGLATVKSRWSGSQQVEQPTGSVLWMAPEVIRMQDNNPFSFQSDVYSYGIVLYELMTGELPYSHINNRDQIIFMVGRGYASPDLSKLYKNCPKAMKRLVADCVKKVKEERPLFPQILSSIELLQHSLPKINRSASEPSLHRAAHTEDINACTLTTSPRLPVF
T1 sequence (P63104 whole entry partner): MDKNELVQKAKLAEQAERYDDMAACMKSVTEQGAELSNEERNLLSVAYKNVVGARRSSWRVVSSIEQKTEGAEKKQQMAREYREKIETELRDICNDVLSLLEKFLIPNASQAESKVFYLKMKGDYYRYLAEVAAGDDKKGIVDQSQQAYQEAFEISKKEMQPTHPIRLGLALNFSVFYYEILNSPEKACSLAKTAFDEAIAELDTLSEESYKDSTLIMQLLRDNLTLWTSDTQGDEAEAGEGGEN
T2 sequence (P15056 whole entry V600E): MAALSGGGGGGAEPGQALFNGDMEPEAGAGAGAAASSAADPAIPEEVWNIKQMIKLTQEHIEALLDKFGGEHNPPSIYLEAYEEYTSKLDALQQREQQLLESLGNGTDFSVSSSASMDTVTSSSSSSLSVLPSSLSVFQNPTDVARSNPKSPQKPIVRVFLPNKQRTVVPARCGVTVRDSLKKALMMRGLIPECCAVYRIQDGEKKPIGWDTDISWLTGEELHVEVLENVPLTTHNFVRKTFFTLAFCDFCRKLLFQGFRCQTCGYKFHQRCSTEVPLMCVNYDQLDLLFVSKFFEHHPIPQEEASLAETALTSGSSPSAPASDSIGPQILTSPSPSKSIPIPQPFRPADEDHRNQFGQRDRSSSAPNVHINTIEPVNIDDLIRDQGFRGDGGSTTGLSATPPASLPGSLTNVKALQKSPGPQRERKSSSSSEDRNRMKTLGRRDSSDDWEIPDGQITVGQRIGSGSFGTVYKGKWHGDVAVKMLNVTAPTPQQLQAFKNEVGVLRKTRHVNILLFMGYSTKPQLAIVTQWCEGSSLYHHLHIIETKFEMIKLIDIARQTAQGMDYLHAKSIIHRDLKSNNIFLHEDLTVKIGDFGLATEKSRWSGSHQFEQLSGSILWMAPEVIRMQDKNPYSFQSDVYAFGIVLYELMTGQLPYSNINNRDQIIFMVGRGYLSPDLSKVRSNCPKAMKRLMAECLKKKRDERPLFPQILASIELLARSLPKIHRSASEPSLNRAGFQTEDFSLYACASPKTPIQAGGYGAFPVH

## Cc1ccc(NC(=O)c2ccnc(C3(C#N)CC3)c2)cc1-c1cnc(N2CC(C)(O)C2)c(C#N)c1 [Example 220, N-(3-(5-cyano-6-(3-hydroxy-3-methylazetidin-1-yl)pyridin-3-yl)-4-methylphenyl)-2-(1-cyanocyclopropyl) isonicotinamide]
C-RAF
  IC50: 0.183 nM
b-Raf (V600E)
  IC50: 0.939 nM

## CCn1cc(C(=O)Nc2ccc(C)c(-c3cnc(N4CC(C)(O)C4)c(C#N)c3)c2)cc(C(F)(F)F)c1=O [Example 221, N-(3-(5-cyano-6-(3-hydroxy-3-methylazetidin-1-yl)pyridin-yl)-4-methylphenyl)-1-ethyl-6-oxo-5-(trifluoromethyl)-1,6-dihydropyridine-3-carboxamide]
C-RAF
  IC50: 0.591 nM
b-Raf (V600E)
  IC50: 3.65 nM

## Cc1ccc(NC(=O)c2cc(C(F)(F)F)ccn2)cc1-c1cnc(N2CCOCC2)c(C#N)c1 [Example 222, N-(3-(5-cyano-6-morpholinopyridin-3-yl)-4-methylphenyl)-4-(trifluoromethyl) picolinamide]
C-RAF
  IC50: 0.219 nM
b-Raf (V600E)
  IC50: 1 nM

## Cc1ncc(NC(=O)c2cc(C(F)(F)F)ccn2)cc1-c1cnc(N2CCOCC2)c(C#N)c1 [Example 223, N-(5′-cyano-2-methyl-6′-morpholino-[3,3′-bipyridin]-5-yl)-4-(trifluoromethyl) picolinamide]
C-RAF
  IC50: 0.304 nM
b-Raf (V600E)
  IC50: 1 nM

## Cc1ccc(NC(=O)c2cc(C(F)(F)F)ccn2)cc1-c1cnc(N2CC(C)(O)C2)c(C#N)c1 [Example 224, N-(3-(5-cyano-6-(3-hydroxy-3-methylazetidin-1-yl)pyridin-3-yl)-4-methylphenyl)-4-(trifluoromethyl) picolinamide]
C-RAF
  IC50: 0.49 nM
b-Raf (V600E)
  IC50: 2 nM

## Cc1ncc(NC(=O)c2cc(C(F)(F)F)ccn2)cc1-c1cnc(N2CC(C)(O)C2)c(C#N)c1 [Example 225, N-(5′-cyano-6′-(3-hydroxy-3-methylazetidin-1-yl)-2-methyl-[3,3′-bipyridin]-5-yl)-4-(trifluoromethyl) picolinamide]
C-RAF
  IC50: 1.08 nM
b-Raf (V600E)
  IC50: 5 nM

## Cc1ccc(NC(=O)c2cc(C(F)(F)F)ccn2)cc1-c1cnc(NC2CCOCC2)c(C#N)c1 [Example 226, N-(3-(5-cyano-6-((tetrahydro-2H-pyran-4-yl)amino)pyridin-3-yl)-4-methylphenyl)-4-(trifluoromethyl) picolinamide]
C-RAF
  IC50: 0.695 nM
b-Raf (V600E)
  IC50: 2 nM

## Cc1ncc(NC(=O)c2cc(C(F)(F)F)ccn2)cc1-c1cnc(NC2CCOCC2)c(C#N)c1 [Example 227, N-(5′-cyano-2-methyl-6′-((tetrahydro-2H-pyran-4-yl)amino)-[3,3′-bipyridin]-5-yl)-4-(trifluoromethyl) picolinamide]
C-RAF
  IC50: 0.796 nM
b-Raf (V600E)
  IC50: 3 nM

## COCCNc1ncc(-c2cc(NC(=O)c3cc(C(F)(F)F)ccn3)ccc2C)cc1C#N [Example 228, N-(3-(5-cyano-6-((2-methoxyethyl)amino)pyridin-3-yl)-4-methylphenyl)-4-(trifluoromethyl) picolinamide]
C-RAF
  IC50: 0.409 nM
b-Raf (V600E)
  IC50: 2 nM

## COCCNc1ncc(-c2cc(NC(=O)c3cc(C(F)(F)F)ccn3)cnc2C)cc1C#N [Example 229, N-(5′-cyano-6′-((2-methoxyethyl)amino)-2-methyl-[3,3′-bipyridin]-5-yl)-4-(trifluoromethyl) picolinamide]
C-RAF
  IC50: 1.37 nM
b-Raf (V600E)
  IC50: 5 nM

## Cc1ncc(NC(=O)c2cc(C(C)(C)C#N)ccn2)cc1-c1cnc(N2CCOCC2)c(C#N)c1 [Example 230, N-(5′-cyano-2-methyl-6′-morpholino-[3,3′-bipyridin]-5-yl)-4-(2-cyanopropan-2-yl)picolinamide]
C-RAF
  IC50: 0.384 nM
b-Raf (V600E)
  IC50: 2.62 nM

## Cc1ncc(NC(=O)c2cc(C(C)(C)C#N)ccn2)cc1-c1cnc(N2CC(C)(O)C2)c(C#N)c1 [Example 231, N-(5′-cyano-6′-(3-hydroxy-3-methylazetidin-1-yl)-2-methyl-[3,3′-bipyridin]-5-yl)-4-(2-cyanopropan-2-yl)picolinamide]
C-RAF
  IC50: 1.96 nM
b-Raf (V600E)
  IC50: 15.8 nM

## Cc1ccc(NC(=O)c2cc(C(C)(C)C#N)ccn2)cc1-c1cnc(N2CC(C)(O)C2)c(C#N)c1 [Example 232, N-(3-(5-cyano-6-(3-hydroxy-3-methylazetidin-1-yl)pyridin-3-yl)-4-methylphenyl)-4-(2-cyanopropan-2-yl)picolinamide]
C-RAF
  IC50: 0.42 nM
b-Raf (V600E)
  IC50: 3.18 nM

## Cc1ccc(NC(=O)c2cc(C(C)(C)C#N)ccn2)cc1-c1cnc(N2CCOCC2)c(C#N)c1 [Example 233, N-(3-(5-cyano-6-morpholinopyridin-3-yl)-4-methylphenyl)-4-(2-cyanopropan-2-yl)picolinamide]
C-RAF
  IC50: 0.187 nM
b-Raf (V600E)
  IC50: 1.34 nM

## Cc1ncc(NC(=O)c2cc(C(C)(C)O)ccn2)cc1-c1cnc(N2CCOCC2)c(C#N)c1 [Example 234, N-(5′-cyano-2-methyl-6′-morpholino-[3,3′-bipyridin]-5-yl)-4-(2-hydroxypropan-2-yl)picolinamide]
C-RAF
  IC50: 2.23 nM
b-Raf (V600E)
  IC50: 3.87 nM

## Cc1ncc(NC(=O)c2cc(C(C)(C)O)ccn2)cc1-c1cnc(N2CC(C)(O)C2)c(C#N)c1 [Example 235, N-(5′-cyano-6′-(3-hydroxy-3-methylazetidin-1-yl)-2-methyl-[3,3′-bipyridin]-5-yl)-4-(2-hydroxypropan-2-yl)picolinamide]
C-RAF
  IC50: 5.8 nM
b-Raf (V600E)
  IC50: 27.9 nM

## Cc1ccc(NC(=O)c2cc(C(C)(C)O)ccn2)cc1-c1cnc(N2CC(C)(O)C2)c(C#N)c1 [Example 236, N-(3-(5-cyano-6-(3-hydroxy-3-methylazetidin-1-yl)pyridin-3-yl)-4-methylphenyl)-4-(2-hydroxypropan-2-yl)picolinamide]
C-RAF
  IC50: 1.55 nM
b-Raf (V600E)
  IC50: 5.78 nM

## Cc1ccc(NC(=O)c2cc(C(C)(C)O)ccn2)cc1-c1cnc(N2CCOCC2)c(C#N)c1 [Example 237, N-(3-(5-cyano-6-morpholinopyridin-3-yl)-4-methylphenyl) 4-(2-hydroxypropan-2-yl)picolinamide]
C-RAF
  IC50: 0.695 nM
b-Raf (V600E)
  IC50: 2.25 nM

## Cc1ncc(NC(=O)c2cc(C(C)(F)F)ccn2)cc1-c1cnc(N2CCOCC2)c(C#N)c1 [Example 238, N-(5′-cyano-2-methyl-6′-morpholino-[3,3′-bipyridin]-5-yl)-4-(1,1-difluoroethyl) picolinamide]
C-RAF
  IC50: 0.333 nM
b-Raf (V600E)
  IC50: 2.25 nM

## Cc1ncc(NC(=O)c2cc(C(C)(F)F)ccn2)cc1-c1cnc(N2CC(C)(O)C2)c(C#N)c1 [Example 239]
C-RAF
  IC50: 0.711 nM
b-Raf (V600E)
  IC50: 6.38 nM

## Cc1ccc(NC(=O)c2cc(C(C)(F)F)ccn2)cc1-c1cnc(N2CC(C)(O)C2)c(C#N)c1 [Example 240, N-(3-(5-cyano-6-(3-hydroxy-3-methylazetidin-1-yl)pyridin-3-yl)-4-methylphenyl)-4-(1,1-difluoroethyl) picolinamide]
C-RAF
  IC50: 0.519 nM
b-Raf (V600E)
  IC50: 3.51 nM

## Cc1ccc(NC(=O)c2cc(C(C)(F)F)ccn2)cc1-c1cnc(N2CCOCC2)c(C#N)c1 [Example 241, N-(3-(5-cyano-6-morpholinopyridin-3-yl)-4-methylphenyl)-4-(1,1-difluoroethyl) picolinamide]
C-RAF
  IC50: 0.279 nM
b-Raf (V600E)
  IC50: 1.5 nM

## Cc1ncc(NC(=O)c2cc(C(C)(C)F)ccn2)cc1-c1cnc(N2CCOCC2)c(C#N)c1 [Example 242, N-(5′-cyano-2-methyl-6′-morpholino-[3,3′-bipyridin]-5-yl)-4-(2-fluoropropan-2-yl)picolinamide]
C-RAF
  IC50: 0.539 nM
b-Raf (V600E)
  IC50: 3.18 nM

## Cc1ncc(NC(=O)c2cc(C(C)(C)F)ccn2)cc1-c1cnc(N2CC(C)(O)C2)c(C#N)c1 [Example 243, N-(5′-cyano-6′-(3-hydroxy-3-methylazetidin-1-yl)-2-methyl-[3,3′-bipyridin]-5-yl)-4-(2-fluoropropan-2-yl)picolinamide]
C-RAF
  IC50: 1.03 nM
b-Raf (V600E)
  IC50: 9.83 nM

## Cc1ccc(NC(=O)c2cc(C(C)(C)F)ccn2)cc1-c1cnc(N2CC(C)(O)C2)c(C#N)c1 [Example 244, N-(3-(5-cyano-6-(3-hydroxy-3-methylazetidin-1-yl)pyridin-3-yl)-4-methylphenyl)-4-(2-fluoropropan-2-yl)picolinamide]
C-RAF
  IC50: 0.876 nM
b-Raf (V600E)
  IC50: 7.18 nM

## Cc1ccc(NC(=O)c2cc(C(C)(C)F)ccn2)cc1-c1cnc(N2CCOCC2)c(C#N)c1 [Example 245, N-(3-(5-cyano-6-morpholinopyridin-3-yl)-4-methylphenyl)-4-(2-fluoropropan-2-yl)picolinamide]
C-RAF
  IC50: 0.533 nM
b-Raf (V600E)
  IC50: 3.24 nM

## Cc1ncc(NC(=O)c2cc(C(C)(C)N)cc(C(F)(F)F)c2)cc1-c1cnc(N2CCOCC2)c(C#N)c1 [Example 246, 3-(2-aminopropan-2-yl)-N-(5′-cyano-2-methyl-6′-morpholino-[3,3′-bipyridin]-5-yl)-5-(trifluoromethyl) benzamide]
C-RAF
  IC50: 1.85 nM
b-Raf (V600E)
  IC50: 7.67 nM

## Cc1ncc(NC(=O)c2cc(C(C)(C)N)cc(C(F)(F)F)c2)cc1-c1cnc(N2CC(C)(O)C2)c(C#N)c1 [Example 247, 3-(2-aminopropan-2-yl)-N-(5′-cyano-6′-(3-hydroxy-3-methylazetidin-1-yl)-2-methyl-[3,3′-bipyridin]-5-yl)-5-(trifluoromethyl) benzamide]
C-RAF
  IC50: 4.96 nM
b-Raf (V600E)
  IC50: 30.7 nM
